Read-outs that look alike come from different tables or passages of the source.
Experiments:
Format in all cases: cell-based
[1] = molecular target: T1, α2C adrenergic receptor (Homo sapiens, UniProt P18825); assay: RSAT (Receptor Selection and Amplification Technology) assay, α2C; details: for EC50: cells expressing the receptor alone, receptor-mediated growth response, NA = not active; for RSAT Rel Eff α2C: relative efficacy compared to a standard full agonist
T1 construct: expressed in transfected cells
T1 sequence (P18825 1-462): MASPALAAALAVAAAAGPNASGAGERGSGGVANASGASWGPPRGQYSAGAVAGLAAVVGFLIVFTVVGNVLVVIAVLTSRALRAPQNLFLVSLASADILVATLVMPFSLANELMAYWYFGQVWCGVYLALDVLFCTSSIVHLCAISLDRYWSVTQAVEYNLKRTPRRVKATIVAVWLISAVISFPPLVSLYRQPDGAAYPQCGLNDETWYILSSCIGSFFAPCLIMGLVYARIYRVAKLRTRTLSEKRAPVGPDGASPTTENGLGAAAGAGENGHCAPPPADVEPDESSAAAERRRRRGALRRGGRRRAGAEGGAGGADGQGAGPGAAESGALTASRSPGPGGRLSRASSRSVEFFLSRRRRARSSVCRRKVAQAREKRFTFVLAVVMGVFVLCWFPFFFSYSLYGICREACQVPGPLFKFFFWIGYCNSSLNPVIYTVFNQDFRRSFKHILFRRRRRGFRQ
Description: (§1) Cells expressing each of the alpha-2 adrenergic receptors alone were incubated with the various compounds and a receptor-mediated growth response was measured.

[2] = molecular target: T2, α2B adrenergic receptor (Homo sapiens, UniProt P18089); assay: RSAT (Receptor Selection and Amplification Technology) assay, α2B; details: for EC50 / RSAT EC50 α2B: cells expressing the receptor alone, receptor-mediated growth response, NA = not active; for RSAT Rel Eff α2B: relative efficacy compared to a standard full agonist
T2 construct: expressed in transfected cells
T2 sequence (P18089 1-450): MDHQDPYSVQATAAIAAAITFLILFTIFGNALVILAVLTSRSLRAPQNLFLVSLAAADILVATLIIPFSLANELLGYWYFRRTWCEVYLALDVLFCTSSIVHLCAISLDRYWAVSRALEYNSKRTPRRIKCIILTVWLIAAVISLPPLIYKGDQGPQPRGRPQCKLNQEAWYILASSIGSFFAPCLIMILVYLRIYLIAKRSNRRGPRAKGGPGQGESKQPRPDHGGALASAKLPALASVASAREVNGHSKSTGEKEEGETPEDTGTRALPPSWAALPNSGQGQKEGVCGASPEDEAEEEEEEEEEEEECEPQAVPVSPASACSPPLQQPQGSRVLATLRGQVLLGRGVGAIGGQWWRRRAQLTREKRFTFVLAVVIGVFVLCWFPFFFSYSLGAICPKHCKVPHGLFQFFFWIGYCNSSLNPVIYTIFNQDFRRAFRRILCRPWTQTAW
Description: as §1

[3] = molecular target: T3, α2A adrenergic receptor (Homo sapiens, UniProt P08913); assay: RSAT (Receptor Selection and Amplification Technology) assay, α2A
T3 construct: expressed in transfected cells
T3 sequence (P08913 1-465): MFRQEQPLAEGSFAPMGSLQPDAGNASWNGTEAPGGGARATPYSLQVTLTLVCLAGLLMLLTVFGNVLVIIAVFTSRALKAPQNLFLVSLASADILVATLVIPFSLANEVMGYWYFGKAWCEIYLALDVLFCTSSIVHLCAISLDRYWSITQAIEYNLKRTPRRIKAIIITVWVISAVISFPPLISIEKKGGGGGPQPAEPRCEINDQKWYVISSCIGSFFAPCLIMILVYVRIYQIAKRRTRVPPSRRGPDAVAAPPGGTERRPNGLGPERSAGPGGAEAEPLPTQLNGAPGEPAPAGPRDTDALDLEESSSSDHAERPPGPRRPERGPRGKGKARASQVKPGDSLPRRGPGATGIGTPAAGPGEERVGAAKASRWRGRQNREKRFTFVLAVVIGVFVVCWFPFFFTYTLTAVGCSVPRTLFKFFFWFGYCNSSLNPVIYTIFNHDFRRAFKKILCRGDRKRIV
Description: Novel compounds having this general structure were synthesized and tested for alpha adrenergic activity using the Receptor Selection and Amplification Technology (RSAT) assay (Messier et. al., 1995, Pharmacol. Toxicol. 76, pp. 308-311). Cells expressing each of the alpha-2 adrenergic receptors alone were incubated with the various compounds and a receptor-mediated growth response was measured. The compounds activity is described as its EC50 and relative efficacy compared to a standard full agonist.

SMILES	EC50 [1]	RSAT Rel Eff α2C [1]	EC50 ([2]; read-out: RSAT EC50 α2B)	RSAT Rel Eff α2B [2]	RSAT EC50 α2B [2]	EC50 ([3]; cells expressing the receptor alone, receptor-mediated growth response, NA = not active)	RSAT Rel Eff α2A ([3]; relative efficacy compared to a standard full agonist)	EC50 ([2]; RSAT EC50 α2B)
c1ccc(C(Cc2ccncc2)NC2=NCCC2)cc1 (stereo not shown) [Compound 21]	39.6 nM	(0.34)	59.2 nM	(0.81)	–	–	–	–
Clc1cccc(C(Cc2cccnc2Cl)NC2=NCCC2)c1 (stereo not shown) [Compound 30]	–	–	–	(1.09)	Potent	–	–	–
Clc1cccc(C(Cc2cccnc2)NC2=NCCC2)c1Cl (stereo not shown) [Compound 28, N-(1-(2,3-dichlorophenyl)-2-(pyridin-3-yl)ethyl)-3,4-dihydro-2H-pyrrol-5-amine]	–	–	–	(1.19)	Potent	–	–	–
Clc1cccc(C(Cc2ccccc2)NC2=NCCC2)c1Cl (stereo not shown) [Compound 7]	–	–	6.6 nM	(0.88)	–	–	–	–
Cc1cncc(CC(NC2=NCCC2)c2cccc(Cl)c2)c1 (stereo not shown) [Compound 29]	29.8 nM	(0.36)	–	(1.1)	Potent	293 nM	(0.31)	–
Cc1ccccc1CC(NC1=NCCC1)c1cccc(Cl)c1 (stereo not shown) [Compound 9]	2.8 nM	–	3.2 nM	(0.62)	–	–	–	–
Clc1ccc(Cl)c(CC(NC2=NCCC2)c2cccc(Cl)c2Cl)c1 (stereo not shown) [Compound 16]	12.5 nM	(0.35)	10.5 nM	(1.04)	–	–	–	–
Clc1cccc(C(Cc2ccc(Cl)nc2)NC2=NCCC2)c1 (stereo not shown) [Compound 31]	–	–	–	(0.84)	–	–	–	67.2 nM
Cc1cccc(C(Cc2ccncc2)NC2=NCCC2)c1C (single isomer, unassigned) [Compound 18]	19.6 nM	(0.43)	3.1 nM	(0.93)	–	–	–	–

More lines, main results first:

EC50 [1]	RSAT Rel Eff α2C [1]	EC50 ([2]; read-out: RSAT EC50 α2B)	RSAT Rel Eff α2B [2]	RSAT EC50 α2B [2]	SMILES	EC50 ([3]; cells expressing the receptor alone, receptor-mediated growth response, NA = not active)	RSAT Rel Eff α2A ([3]; relative efficacy compared to a standard full agonist)	EC50 ([2]; RSAT EC50 α2B)
12.9 nM	(0.36)	4 nM	(0.97)	–	COc1cccc(CC(NC2=NCCC2)c2cccc(Cl)c2Cl)c1 (stereo not shown) [Compound 13]	–	–	–
–	–	12.8 nM	(0.70)	–	Cc1c(F)cccc1CC(NC1=NCCC1)c1cccc(Cl)c1Cl (stereo not shown) [Compound 15]	–	–	–
–	–	81.7 nM	(0.74)	–	c1ccc(C(Cc2cccnc2)NC2=NCCC2)cc1 (stereo not shown) [Compound 25]	–	–	–
–	–	5.1 nM	(0.85)	–	Cc1cccc(C(Cc2cncc(C)c2C)NC2=NCCC2)c1 (stereo not shown) [Compound 34]	–	–	–
–	–	8.6 nM	(0.93)	–	Clc1ccc(CC(NC2=NCCC2)c2cccc(Cl)c2Cl)cc1Cl (stereo not shown) [Compound 26]	–	–	–
–	–	19.9 nM	(0.91)	–	Cc1cncc(CC(NC2=NCCC2)c2cccc(Cl)c2)c1C (stereo not shown) [Compound 33]	–	–	–
17.1 nM	(0.46)	2.2 nM	(1.18)	–	Clc1cc(Cl)cc(CC(NC2=NCCC2)c2cccc(Cl)c2Cl)c1 (stereo not shown) [Compound 20]	–	–	–
–	–	10.8 nM	(0.94)	–	Fc1c(Cl)cccc1C(Cc1ccncc1)NC1=NCCC1 (stereo not shown) [Compound 5]	–	–	–

Reference: patent publication US8183414B2, “N-(1-phenyl-2-arylethyl)-4,5-dihydro-2H-pyrrol-5-amine compounds as subtype selective modulators of ALPHA2B or ALPHA2B and ALPHA2C adrenoceptors” (Allergan, Inc., priority 2008, dated 2012)
